The values below come from article PMC12055641, “The Study of Antistaphylococcal Potential of Omiganan and Retro-Omiganan Under Flow Conditions” (Probiotics and Antimicrobial Proteins, 2024).

No end group written: not given here.

In data set [1] the test system is human keratinocytes (HaCaT). It counts as cell-based. The following applies: 24 h. Here is the method:
To evaluate the cytotoxicity of the peptides (IC50), the classic MTT assay on 96-well plates was performed for human keratinocytes (HaCaT) which were acquired from the ATCC. The assay utilizes colorimetric determination of the cell metabolic activity, and the color intensity reflects the number of live cells that can be measured spectrophotometrically. […] DMSO was added to the control cells at a final concentration of 1.0% (v/v), which was related to the maximum concentration of the solvent compounds used in the experiment. After 24 h of incubation at 37 °C (humidified 5% CO2 incubator) with the peptides, a medium containing 1 mg/mL of MTT was added to the wells up to a final concentration of 0.5 mg/mL. Subsequently, the plates were incubated at 37 °C for 4 h. Then, the medium was aspirated, and the formazan product was solubilized with DMSO. The background absorbance at 630 nm was subtracted from that at 570 nm for each well (Epoch, BioTek Instruments, USA). Six replicates were conducted for each concentration. All experiments were repeated at least twice and the resulting IC50 values were calculated with GraFit 7 software (v. 7.0, Erithacus, Berkley, CA, USA).

The nature of another data set: Hemolysis assay. Type of data set: cell-based. As to conditions: human, human red blood cells (RBCs), 64 μg/mL (lowest concentration causing hemolysis > 10%); read-out: degree of hemolysis. Here is the method:
The hemolysis assay was conducted using a procedure described previously. […] The control wells for 0% hemolysis and 100% hemolysis consisted of RBCs suspended in PBS and 1% of Triton X-100, respectively. […] After centrifugation, the supernatant was carefully […] to new microtiter plates and the release of hemoglobin was monitored by absorbance readings at 540 nm (MultiskanTM GO Microplate Spectrophotometer, Thermo Scientific). All experiments were conducted in triplicate. Blood collection was approved by Medical University of Gdańsk ethics committee (Consent Number: NKBBN/264/2019).

Data set [2] concerns S. aureus ATCC 33591 (MRSA) biofilm. As to conditions: ATCC 33591, 24 h. From the text: (§1) Clinical S. aureus strains were collected from patients with atopic dermatitis during their visits to the Outpatient Clinic and hospitalization in the Department of Dermatology, Venereology and Allergology at Medical University of Gdańsk (following the approval from the ethics committee, Approval Number NKBBN/242–477/2014). Reference strains of S. aureus ATCC 25923, S. aureus ATCC 33591, S. aureus ATCC 9144, and S. aureus ATCC 12598 were obtained from the American Type Culture Collection. All the strains were stored at − 80 °C in Roti®-Store cryo vials (Carl Roth GmbH, Karlsruhe, Germany) and before the tests were transferred into fresh Mueller–Hinton Medium (BioMaxima, Lublin, Poland) and incubated for 24 h at 37 °C. Subsequently, each bacterial inoculum was seeded on Mueller–Hinton agar plates (BioMaxima) and incubated again for 24 h. The cultures prepared in this way were used in further antimicrobial assays. Minimum inhibitory concentrations (MICs) were determined according to the Clinical and Laboratory Standards Institute recommendations. […] The experiments were conducted on 96-well microtiter plates, with a final volume of 100 μL. Additionally, in the case of daptomycin, the medium was supplemented with Ca^2+ (50 mg/L). Cell densities were adjusted spectrophotometrically (Multiskan™ GO Microplate Spectrophotometer, Thermo Scientific) at 600 nm. The MICs were taken as the lowest drug concentration at which a visible growth of the microorganisms was inhibited. Minimum biofilm eliminating concentrations (MBECs) were determined on 96-well flat-bottomed microtiter polystyrene plates with resazurin (7-hydroxy-3H-phenoxazin-3-one 10-oxide sodium salt) as a cell viability reagent. To do this, the plates were filled with 100 μL of the initial inoculums of bacteria (0.5 × 10^7 CFU/mL) in the Mueller–Hinton broth and incubated for 24 h at 37 °C. […] After 24 h of incubation, 20 μL of resazurin (4 mg/mL) was added to each well and the MBEC values were read. Minimum biofilm inhibitory concentrations (MBICs) were also determined on 96-well flat-bottomed microtiter polystyrene plates as described previously. To do this, 50 μL of the compounds in the concentration range, diluted MHB, were prepared. Subsequently, the 50 μL of the staphylococcal inoculums were added to reach the same density of bacteria as that in the MBEC assay. After 24 h of incubation at 37 °C, the wells were rinsed three times with PBS and the fresh medium (100 μL) with resazurin (0.6 mg/mL) was added. Then, after 1 h of incubation, MBICs were read. […] All experiments were conducted in triplicate.

Data set [3] deals with S. aureus ATCC 33591 (MRSA). The following applies: ATCC 33591, 24 h.
Excerpt: as §1

The test system of data set [4] is S. aureus clinical strain 004N (MRSA) biofilm. As to conditions: clinical strain 004N biofilm, 24 h.
Excerpt: as §1

Data set [5] concerns S. aureus clinical strain 004N (MRSA). As to conditions: 24 h.
Excerpt: as §1

Data set [6] relates to S. aureus clinical strain 015N (MRSA) biofilm. The following applies: clinical strain 015N biofilm, 24 h.
Excerpt: as §1

Data set [7] deals with S. aureus clinical strain 015N (MRSA). The following applies: 24 h.
Excerpt: as §1

For data set [8], the system named is S. aureus clinical strain 043SC (MRSA) biofilm. The following applies: clinical strain 043SC biofilm, 24 h.
Excerpt: as §1

Data set [9] has as its system S. aureus clinical strain 043SC (MRSA). As to conditions: 24 h.
Excerpt: as §1

Data set [10] relates to S. aureus clinical strain 051N (MRSA) biofilm. As to conditions: clinical strain 051N biofilm, 24 h.
Excerpt: as §1

In data set [11] the test system is S. aureus clinical strain 051N (MRSA). As to conditions: 24 h.
Excerpt: as §1

Data set [12] has as its system biofilm of reference and clinical strains of staphylococci (S. aureus). The following applies: 24 h.
Excerpt: as §1

The test system of data set [13] is reference and clinical strains of staphylococci (S. aureus). The following applies: 24 h.
Excerpt: as §1

The subject of another data set is cells. Details: method as in PMID 11294848. As to conditions: low concentrations; cited from earlier work.

As a reminder, the IC50 is the concentration at which inhibition is half-maximal. Low values mean greater potency, high ones weaker potency. A word on the MIC: it is the lowest concentration found to suppress growth. Higher therefore signals weaker potency. KRRWPWWPWRLI-NH2 [Retro-omiganan Cl^−] came in with an IC50 in data set [1] of 26.66 µg/mL. The hemolysis at 60 min, 64 μg/mL in the data set “Hemolysis assay” is 16%. Moreover, the MBEC worked out at 32 µg/mL in data set [2]; 64 µg/mL in [4]; 32 µg/mL in data set [6]; 32 µg/mL in [8]; 64 µg/mL in [10]. The MBIC is listed as 32 µg/mL in data set [2]; 16 µg/mL in data set [4]; 16 µg/mL in data set [6]; 16 µg/mL in data set [8]; 16 µg/mL in data set [10]. Besides, the MIC in [3] was found to be 16 µg/mL; in data set [5] it was 16 µg/mL; in data set [7], 8 µg/mL; in [9], 8 µg/mL; in data set [11], 16 µg/mL. The “mean MBEC (initial values)” value in data set [12] was 36.57 µg/mL. In data set [13], the “mean MIC (initial values)” value is given as 8.93 µg/mL.
On to “indolicidin: antimicrobial peptide derived from bovine neutrophil granules (ILPWKWPWWPWRR; ends and bridges not checked; UniProt P33046 131-143, looked up)”, for which the “cells with membrane depolarization” value with cells is on record as “up to 75%”.
